The structures appear in SMILES notation. Bounds are passed on as bounds.

In US20240360146A1, “BRUTON'S TYROSINE KINASE AND MUTANT DEGRADER, COMPOSITION AND APPLICATION THEREOF” (HANGZHOU HEALZEN THERAPEUTICS CO., LTD., priority 2021, published 2024) one finds DC50 data, which are given here for 18 compounds.

The test concerns the target T1, BTK (Homo sapiens, UniProt Q06187).
T1 construct: endogenous in cells; host or cells: Mino cells
In words: BTK degradation activity test in Mino cells. Type of test: cell-based. To be noted: 16 h incubation, Western blot or Elisa. As for the experimental part:
Mino cell line cells were seeded at 500,000 to 1,000,000 cells/well in a 6-well plate. The compounds were diluted to different concentrations and added to the plate, and after 16 h of incubation, cells were harvested. After lysing the cells, the total protein concentration in each well was determined using the BCA method. The amount of BTK was determined using Western blot or Elisa method. The amount of undegraded BTK protein at each drug concentration was compared with the amount of BTK protein in the blank control group to calculate the degradation rate. The degradation curve was drawn based on the degradation rate at each concentration, and the half degradation concentration (DC50) was calculated by fitting.
A general note: In western blotting, separated proteins are transferred to a membrane and probed.

T1 sequence (Q06187 whole entry): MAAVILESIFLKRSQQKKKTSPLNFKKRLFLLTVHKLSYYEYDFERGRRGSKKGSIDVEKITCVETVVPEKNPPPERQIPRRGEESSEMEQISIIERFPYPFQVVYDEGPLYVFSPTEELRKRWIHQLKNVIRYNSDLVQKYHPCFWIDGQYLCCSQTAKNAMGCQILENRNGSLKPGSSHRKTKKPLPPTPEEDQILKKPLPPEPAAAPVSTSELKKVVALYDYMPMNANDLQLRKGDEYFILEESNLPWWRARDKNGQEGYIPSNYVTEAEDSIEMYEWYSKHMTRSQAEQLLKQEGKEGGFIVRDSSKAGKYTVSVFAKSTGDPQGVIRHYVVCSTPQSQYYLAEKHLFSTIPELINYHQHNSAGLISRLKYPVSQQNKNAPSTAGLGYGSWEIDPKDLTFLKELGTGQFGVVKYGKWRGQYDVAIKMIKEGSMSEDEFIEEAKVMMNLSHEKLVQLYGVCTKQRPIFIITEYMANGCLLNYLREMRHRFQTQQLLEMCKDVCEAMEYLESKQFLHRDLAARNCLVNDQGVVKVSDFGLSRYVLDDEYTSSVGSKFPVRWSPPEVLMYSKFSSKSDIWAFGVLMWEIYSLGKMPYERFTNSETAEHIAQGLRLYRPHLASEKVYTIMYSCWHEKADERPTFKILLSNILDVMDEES

In the case of `CN1CCN(C2CCCN(c3ncc(C(N)=O)c(Nc4ccc(C5(C)CCN(CC6CCN(c7ccc8c(c7)C(=O)N(C7CCC(=O)NC7=O)C8=O)C6)CC5)cc4)n3)C2)C1=O` (stereo not drawn) [Compound 036, 4-((4-(1-((1-(2-(2,6-dioxopiperidin-3-yl)-1,3-dioxoisoindolin-5-yl)pyrrolidin-3-yl)methyl)-4-methylpiperidin-4-yl)phenyl)amino)-2-(3-(3-methyl-2-oxoimidazolin-1-yl)piperidin-1-yl)pyrimidin-5-carboxamide], the DC50 (as a rule, the concentration at which degradation of the target reaches its halfway point) was less than 1 nM.

As for `CN1CCN(C2CCCN(c3nc(Nc4ccc(C5(C)CCN(CC6CCN(c7ccc8c(c7)C(=O)N(C7CCC(=O)NC7=O)C8=O)C6)CC5)cc4)c(C(N)=O)cc3F)C2)C1=O` (stereo not drawn) [Compound 037, 2-((4-(1-((1-(2-(2,6-dioxopiperidin-3-yl)-1,3-dioxoisoindolin-5-yl)pyrrolidin-3-yl)methyl)-4-methylpiperidin-4-yl)phenyl)amino)-5-fluoro-6-(3-(3-methyl-2-oxoimidazolin-1-yl)piperidin-1-yl)nicotinamide], the DC50 was more than 1 nM.

`COc1cc(C(N)=O)c(Nc2ccc(C3(C)CCN(CC4CCN(c5ccc6c(c5)C(=O)N(C5CCC(=O)NC5=O)C6=O)C4)CC3)cc2)nc1N1CCCC(N2CCN(C)C2=O)C1` (stereo not drawn) [Compound 038, 2-((4-(1-((1-(2-(2,6-dioxopiperidin-3-yl)-1,3-dioxoisoindolin-5-yl)pyrrolidin-3-yl)methyl)-4-methylpiperidin-4-yl)phenyl)amino)-5-methoxy-6-(3-(3-methyl-2-oxoimidazolin-1-yl)piperidin-1-yl)nicotinamide] gave a DC50 of less than 1 nM.

As to `NC(=O)c1ncc(N2CCCC(N3CCN(C4CCCC4)C3=O)C2)nc1Nc1ccc(C2CCN(CC3CCN(c4ccc5c(c4)C(=O)N(C4CCC(=O)NC4=O)C5=O)C3)CC2)cc1` (stereo not drawn) [Compound 039, 5-(3-(3-cyclopentyl-2-oxoimidazolin-1-yl)piperidin-1-yl)-3-((4-(1-((1-(2-(2,6-dioxopiperidin-3-yl)-1,3-dioxoisoindolin-5-yl)pyrrolidin-3-yl)methyl)piperidin-4-yl)phenyl)amino)pyrazin-2-carboxamide], the DC50 was less than 1 nM.

`NC(=O)c1ncc(N2CCCC(N3CCN(C4CCCC4)C3=O)C2)nc1Nc1ccc(C2(F)CCN(CC3CCN(c4ccc5c(c4)C(=O)N(C4CCC(=O)NC4=O)C5=O)C3)CC2)cc1` (stereo not drawn) [Compound 040, 5-(3-(3-cyclopentyl-2-oxoimidazolin-1-yl)piperidin-1-yl)-3-((4-(1-((1-(2-(2,6-dioxopiperidin-3-yl)-1,3-dioxoisoindolin-5-yl)pyrrolidin-3-yl)methyl)-4-fluoropiperidin-4-yl)phenyl)amino)pyrazin-2-carboxamide] returned a DC50 of less than 1 nM.

Regarding `NC(=O)c1ncc(N2CCCC(N3CCN(C4CCCC4)C3=O)C2)nc1Nc1ccc(C2CCN(CC3CCN(c4ccc5c(c4)C(=O)N(C4CCC(=O)NC4=O)C5=O)C3)CC2)cc1F` (stereo not drawn) [Compound 041, 5-(3-(3-cyclopentyl-2-oxoimidazolin-1-yl)piperidin-1-yl)-3-((4-(1-((1-(2-(2,6-dioxopiperidin-3-yl)-1,3-dioxoisoindolin-5-yl)pyrrolidin-3-yl)methyl)piperidin-4-yl)-2-fluorophenyl)amino)pyrazin-2-carboxamide], the DC50 was less than 1 nM.

The compound `N#Cc1cc(Nc2nc(N3CCCC(N4CCN(C5CCCC5)C4=O)C3)cnc2C(N)=O)ccc1C1CCN(CC2CCN(c3ccc4c(c3)C(=O)N(C3CCC(=O)NC3=O)C4=O)C2)CC1` (stereo not drawn) [Compound 042, 3-((3-cyano-4-(1-((1-(2-(2,6-dioxopiperidin-3-yl)-1,3-dioxoisoindolin-5-yl)pyrrolidin-3-yl)methyl)piperidin-4-yl)phenyl)amino)-5-(3-(3-cyclopentyl-2-oxoimidazolin-1-yl)piperidin-1-yl)pyrazin-2-carboxamide] came in with a DC50 of less than 1 nM.

In turn, `NC(=O)c1ncc(N2CCCC(N3CCN(C4CCCC4)C3=O)C2)nc1Nc1ccc(C2CCN(CC3CCN(c4ccc5c(c4)C(=O)N(C4CCC(=O)NC4=O)C5=O)C3)CC2F)cc1` (stereo not drawn) [Compound 043, 5-(3-(3-cyclopentyl-2-oxoimidazolin-1-yl)piperidin-1-yl)-3-((4-(1-((1-(2-(2,6-dioxopiperidin-3-yl)-1,3-dioxoisoindolin-5-yl)pyrrolidin-3-yl)methyl)-3-fluoropiperidin-4-yl)phenyl)amino)pyrazin-2-carboxamide] came in with a DC50 of more than 1 nM.

In the case of `CN1C(=O)N(C2CCCN(c3cnc(C(N)=O)c(Nc4ccc(C5CCN(CC6CCN(c7ccc8c(c7)C(=O)N(C7CCC(=O)NC7=O)C8=O)C6)CC5)cc4)n3)C2)CC12CC2` (stereo not drawn) [Compound 044, 3-((4-(1-((1-(2-(2,6-dioxopiperidin-3-yl)-1,3-dioxoisoindolin-5-yl)pyrrolidin-3-yl)methyl)piperidin-4-yl)phenyl)amino)-5-(3-(4-methyl-5-oxo-4,6-diazaspiro[2.4]cycloheptan-6-yl)piperidin-1-yl)pyrazin-2-carboxamide], the DC50 was less than 1 nM.

The compound `NC(=O)c1ncc(N2CCCC(N3CC4CCCCN4C3=O)C2)nc1Nc1ccc(C2CCN(CC3CCN(c4ccc5c(c4)C(=O)N(C4CCC(=O)NC4=O)C5=O)C3)CC2)cc1` (stereo not drawn) [Compound 045, 3-((4-(1-((1-(2-(2,6-dioxopiperidin-3-yl)-1,3-dioxoisoindolin-5-yl)pyrrolidin-3-yl)methyl)piperidin-4-yl)phenyl)amino)-5-(3-(3-oxohexahydroimidazo[1,5-a]pyridin-2(3H)-yl)piperidin-1-yl)pyrazin-2-carboxamide] had a DC50 of less than 1 nM.

The compound `CN1CCN(C2CC3CC2N(c2cnc(C(N)=O)c(Nc4ccc(C5CCN(C6CN(c7ccc8c(c7)C(=O)N(C7CCC(=O)NC7=O)C8=O)C6)CC5)cc4)n2)C3)C1=O` (stereo not drawn) [Compound 046, 3-((4-(1-(1-(2-(2,6-dioxopiperidin-3-yl)-1,3-dioxoisoindolin-5-yl)azetidin-3-yl)piperidin-4-yl)phenyl)amino)-5-(-6-(3-methyl-2-oxoimidazolin-1-yl)-2-azabicyclo[2.2.1]heptan-2-yl)pyrazin-2-carboxamide] displayed a DC50 of less than 1 nM.

`CC(C)N1CCN(C2CC3CC2N(c2cnc(C(N)=O)c(Nc4ccc(C5CCN(C6CN(c7ccc8c(c7)C(=O)N(C7CCC(=O)NC7=O)C8=O)C6)CC5)cc4)n2)C3)C1=O` (stereo not drawn) [Compound 047, 3-((4-(1-(1-(2-(2,6-dioxopiperidin-3-yl)-1,3-dioxoisoindolin-5-yl)azetidin-3-yl)piperidin-4-yl)phenyl)amino)-5-(-6-(3-isopropyl-2-oxoimidazolin-1-yl)-2-azabicyclo[2.2.1]heptan-2-yl)pyrazin-2-carboxamide] returned a DC50 of less than 1 nM.

`CN1CCN(C2CC3CC2N(c2ccc(C(N)=O)c(Nc4ccc(C5CCN(C6CN(c7ccc8c(c7)C(=O)N(C7CCC(=O)NC7=O)C8=O)C6)CC5)cc4)n2)C3)C1=O` (stereo not drawn) [Compound 048, 2-((4-(1-(1-(2-(2,6-dioxopiperidin-3-yl)-1,3-dioxoisoindolin-5-yl)azetidin-3-yl)piperidin-4-yl)phenyl)amino)-6-(-6-(3-methyl-2-oxoimidazolin-1-yl)-2-azabicyclo[2.2.1]heptan-2-yl)nicotinamide] returned a DC50 of less than 1 nM.

Compound `CN1CCN(C2CC3CC2N(c2nnc(C(N)=O)c(Nc4ccc(C5CCN(C6CN(c7ccc8c(c7)C(=O)N(C7CCC(=O)NC7=O)C8=O)C6)CC5)cc4)n2)C3)C1=O` (stereo not drawn) [Compound 049, 5-((4-(1-(1-(2-(2,6-dioxopiperidin-3-yl)-1,3-dioxoisoindolin-5-yl)azetidin-3-yl)piperidin-4-yl)phenyl)amino)-3-(-6-(3-methyl-2-oxoimidazolin-1-yl)-2-azabicyclo[2.2.1]heptan-2-yl)-1,2,4-triazin-6-carboxamide] displayed a DC50 of less than 1 nM.

Consider `CN1CCN(C2CC3CCC2N(c2cnc(C(N)=O)c(Nc4ccc(C5CCN(C6CN(c7ccc8c(c7)C(=O)N(C7CCC(=O)NC7=O)C8=O)C6)CC5)cc4)n2)C3)C1=O` (stereo not drawn) [Compound 050, 3-((4-(1-(1-(2-(2,6-dioxopiperidin-3-yl)-1,3-dioxoisoindolin-5-yl)azetidin-3-yl)piperidin-4-yl)phenyl)amino)-5-(-6-(3-methyl-2-oxoimidazolin-1-yl)-2-azabicyclo[2.2.2]octan-2-yl)pyrazin-2-carboxamide], for which the DC50 was less than 1 nM.

`CN1CCN(C2CC3CC2N(c2nnc(C(N)=O)c(Nc4ccc(C5CCN(C6CN(c7cc8c(cc7F)C(=O)N(C7CCC(=O)NC7=O)C8=O)C6)CC5)cc4)n2)C3)C1=O` (stereo not drawn) [Compound 051, 5-((4-(1-(1-(2-(2,6-dioxopiperidin-3-yl)-6-fluoro-1,3-dioxoisoindolin-5-yl)azetidin-3-yl)piperidin-4-yl)phenyl)amino)-3-(-6-(3-methyl-2-oxoimidazolin-1-yl)-2-azabicyclo[2.2.1]heptan-2-yl)-1,2,4-triazin-6-carboxamide]: the DC50 was less than 1 nM.

The compound `NC(=O)c1ncc(N2CCCC(N3CCN(C4CCCC4)C3=O)C2)nc1Nc1ccc(C2CCN(CC3CCN(c4cc5c(cc4F)C(=O)N(C4CCC(=O)NC4=O)C5=O)C3)CC2)cc1` (stereo not drawn) [Compound 052, 5-(3-(3-cyclopentyl-2-oxoimidazolin-1-yl)piperidin-1-yl)-3-((4-(1-((1-(2-(2,6-dioxopiperidin-3-yl)-6-fluoro-1,3-dioxoisoindolin-5-yl)pyrrolidin-3-yl)methyl)piperidin-4-yl)phenyl)amino)pyrazin-2-carboxamide] displayed a DC50 of less than 1 nM.

Compound `CN1CCN(C2CCCN(c3nnc(C(N)=O)c(Nc4ccc(C5CCN(CC6CCN(c7ccc8c(c7)C(=O)N(C7CCC(=O)NC7=O)C8=O)CC6)CC5)cc4)n3)C2)C1=O` (stereo not drawn) [Compound 053, 5-((4-(1-((1-(2-(2,6-dioxopiperidin-3-yl)-1,3-dioxoisoindol-5-yl)piperidin-4-yl)methyl)piperidin-4-yl)phenyl)amino)-3-(3-(3-methyl-2-oxoimidazolin-1-yl)piperidin-1-yl)-1,2,4-triazin-6-carboxamide] had a DC50 of less than 1 nM.
